Results as given in patent US20130274352A1, “Oral Drug Devices and Drug Formulations” (The Regents of the University of California, priority 2009, published 2013).
Like-named read-outs stand apart in the source and are kept apart here.

Experiments:
[1] = test system: Caco-2 monolayers; experiment: Permeability of tritium-labeled mannitol or 70 kDa dextran across Caco-2 monolayers
Method: (§1) Solutions containing CPEs and 1 μCi/ml of tritium-labeled mannitol or 70 kDa dextran (American Radiolabeled Chemicals, St. Louis, Mo.) were applied to the apical side of Caco-2 monolayers. Samples were taken from the basolateral compartment every 10 minutes for 1 hour and the radiolabeled contents were analyzed with a scintillation counter (Packard Tri-Carb 2100 TR, Meriden, Conn.).
(§2) where ΔM is the amount of solute transported across the barrier in the time Δt, CM is the concentration of solute in the apical compartment, and Axs is the cross-sectional area of epithelium in contact with the apical solution.
(§3) Positive control experiments were performed on BD Biocoat™ filter supports in the absence of cells.

[2] = test system: B. thailendensis; experiment: Minimum inhibitory concentration, broth microdilution; assay type: cell-based; conditions: 18 hours, 37° C.
Method: Minimum inhibitory concentration against B. thailendensis was determined. Broth microdilution method was followed for MIC determination. Briefly, fresh cultures were grown on the day of experiment using the protocol described below.
Low sodium Leuria-Bertani (LSLB) broth (10 g tryptone 1-1, 5 g yeast extract 1-1, 5 g NaCl 1-1) made in ultrapure water and sterilized via autoclaving (121° C., 15 min) was used for culturing B. thailendensis. Culturing protocol was same as given above for E. coli.
The cultures were adjusted to 5.5×10^5 cfu/ml and used within 30 minutes to minimize change in bacterial counts. Cultures were dispensed in 96-well cell culture polypropylene plates (Corning, Lowell, Mass.) at 90 μl/well. Serial dilutions of test formulations were made at 10× concentration. Inoculums in each well were incubated with 10 μl of test formulation dilutions for 18 hours at 37° C. under humidified conditions. At the end of incubation period, the plates were visibly inspected for bacterial growth. Colonies were counted for selected wells by plating culture dilutions on LSLB plates.

[3] = test system: Primary epidermal keratinocyte cultures (HEKa); experiment: Keratinocyte cytotoxicity (LC50), MTT; assay type: cell-based, human; conditions: HEKa cells
Method: Primary epidermal keratinocyte cultures from an adult human source (HEKa) were purchased from Invitrogen Corp (Carlsbad, Calif.) and used for all cytotoxicity experiments. Cells were maintained in a humidified incubator (37° C., 5% CO2), in EpiLife medium with 60 μM calcium and phenol red, supplemented with 10 ml/l human keratinocyte growth supplement, 5 IU/ml penicillin and 5 μg/ml streptomycin. All components of growth media were purchased from Invitrogen Corp (Carlsbad, Calif.). Cells were grown to 70-80% confluence in cell culture flasks (Corning, Lowell, Mass.) as per suppliers' protocols.
At the end of the growth period, keratinocyte cells were seeded at a density of 10^4 cells/well in 96-well tissue culture treated polystyrene plates (Corning, Lowell, Mass.) and incubated overnight to allow cell attachment. Cells were supplied with fresh EpiLife medium (90 μl/well) at the start of experiment, followed by application of test formulations (10 μl/well). The final concentration of test formulations in each well was 0.0001% w/v. This concentration limit was determined based on the LC50 values of component chemicals for HEKa cell line, which were determined in a separate experiment. The cells were incubated with the test formulations for 1 hour. […] The plates were incubated for 16 hours in a humidified environment and absorbance was read at 570 nm.

[4] = test system: Caco-2 monolayers; experiment: Transwell permeability of sulforhodamine-B or FITC-insulin with PPS; assay type: cell-based, human
Excerpt: The withdrawn sample was immediately replaced with an equivalent amount of the experimental media.

[5] = test system: Caco-2 cells; experiment: Toxicity potential (TP) by MTT assay and synergy (S) of mixtures; assay type: cell-based, human
Method: As used herein “toxicity potential” or “TP” is used to assess the safety of CPEs and refers to the toxicity of one or more CPEs as determined using a Methyl Thiazole Tetrazolium (MTT) kit (American Type Culture Collection, Rockville, Md.). Caco-2 cells were seeded at 10^5 cells/well onto a 96-well plate. Enhancer solutions (100 μl) were applied for 30 minutes. 10 μl of reagent from an MTT kit (American Type Culture Collection, Rockville, Md.) was applied to each well for 5 hours, after which 100 μl of detergent was applied to each well and allowed to incubate in the dark at room temperature for about 40 hours. Absorbance was read at 570 nm (MTT dye) and 650 nm (detergent).
TP values are reported as the fraction of nonviable cells, as compared to the negative control, DMEM. TP values range from 0 to 1, with 0 indicating no mitrochondrial toxicity, and 1 representing maximum toxicity.
As used herein “synergy” or “S” refers to the difference between the linear average of the toxicity of the individual components and the experimentally measured toxicity of the mixture. Synergy was calculated as follows:
S=[X1·TP1+X2·TP2+X3·TP3]−TPmix Eq. 3
where X1, X2, and X3 are the weight fractions of single enhancers 1, 2, and 3, respectively, and TP1, TP2, TP3, and TPmix are the toxicity potentials of pure CPE 1, pure CPE 2, pure CPE 3, and the mixture of CPEs at the corresponding weight fractions X1, X2, and X3. All TP values in the equation above are obtained at the same total concentration. Since TP values can range from 0 to 1, maximum and minimum Synergy values are 1 and −1, respectively.
Caco-2 cells were seeded at 10^5 cells/well onto a 96-well plate. Enhancer solutions (100 μl) were applied for 30 minutes. 10 μl of reagent from an MTT kit (American Type Culture Collection, Rockville, Md.) was applied to each well for 5 hours, after which 100 μl of detergent was applied to each well and allowed to incubate in the dark at room temperature for about 40 hours. Absorbance was read at 570 nm (MTT dye) and 650 nm (detergent). Toxicity potential (TP) values are reported as the fraction of nonviable cells, as compared to the negative control, DMEM. TP values range from 0 to 1, with 0 indicating no mitrochondrial toxicity, and 1 representing maximum toxicity.

[6] = test system: Caco-2 cells; experiment: Calcein entry into epithelial cells, fluorescence microscopy; assay type: cell-based, human; conditions: 0.01% PPS, 0.01% (w/v) calcein
Method: A solution containing a permeation enhancer and 0.01% (w/v) calcein dissolved in phosphate buffered saline was applied to Caco-2 cells. After 30 minutes, solutions were removed and replaced with a solution containing only calcein. After 1 hour, samples were washed 3× with phosphate buffered saline and viewed with a Zeiss fluorescence microscope.

[7] = test system: Caco-2 monolayers; experiment: TEER over time with PPS (Example 5); assay type: cell-based, human; conditions: for decrease in TEER (% of initial value): 5 hours
Method: Caco-2 cell line HTB-37 (ATCC, Rockville, Md.), derived from human colon cells, was used for all experiments. Cells were maintained in DMEM supplemented with 25 IU/ml of penicillin, 25 mg/L of streptomycin, 250 μg/L of amphotericin B and 100 ml/L of fetal bovine serum. Monolayers were grown on BD Biocoat™ HTS collagen filter supports (BD Biosciences, Bedford, Mass.) according to supplier instructions. At the end of the growth period, the integrity of the cell monolayer was confirmed by transepithelial electrical resistance (TEER) measurements (Millicell-ERS voltohmmeter, Millipore, Billerica, Mass.). Only monolayers with TEER values in the range of 150-200 Ω-cm^2 were used for further experimentation.

[8] = test system: Caco-2 monolayers; experiment: TEER reversibility after PPS exposure; assay type: cell-based, human; conditions: 0.03% w/v PPS for 10 minutes or 1 hour; within 24 hours of removal
[9] = test system: Caco-2 monolayer; experiment: Confocal laser microscopy of FITC-insulin permeation with PPS; assay type: cell-based, human; conditions: 5 hours
Excerpt: Following fixation, cells were gently washed with HBSS, membranes gently removed from the plastic insert, and were mounted on a microscopy slide with DAPI containing cell mounting media (Vectashield® Hardset®, Vector Laboratories, Burlingame, Calif.). All samples were imaged on a confocal microscope (Leica and Olympus Fluoview 500).

[10] = Plasma sCT concentration after intestinal injection of sCT with or without PPS; assay type: in vivo, rat; conditions: 1% w/v PPS with sCT 3 mg/kg, SD rats
Method: Adult male Sprague-Dawley (SD) rats of 275-300 g, fasted for 7 hours were used for all studies. A midline abdominal incision of 2.5-3.0 cm was made in animals anesthetized by 1.5-3.0% isoflurane to expose the gastrointestinal system. […] Incision was then closed with sterile vicryl […] (muscular), and Vetbond® tissue glue (skin). Blood samples were collected up to 5 hours by tail vein bleeding (heparinized tubes for plasma Calcium, and EDTA tubes for plasma sCT determination), and plasma was separated for analysis of both pharmacodynamic and pharmacokinetic response. Pharmacodynamic response was measured by quantifying plasma calcium levels using a colorimetric calcium assay kit (Sciencell Laboratories, Carlsbad, Calif.); and pharmacokinetic efficacy was tested by quantifying plasma concentrations of salmon calcitonin (sCT) using an extraction-free ELISA kit (Bachem Americas Inc., Torrance, Calif.) following manufacturer's protocols.

[11] = test system: intestinal epithelium; experiment: Intestinal tissue histology after PPS; assay type: in vivo, rat; conditions: 0.1% and 1% w/v PPS, 0.5 ml, 5 hrs, SD rats
Method: Histological studies were performed to evaluate the possibility of damage caused by PPS in the intestine. […] The sections were stained using hematoxylin-eosin staining and imaged at 50× magnification using an inverted light microscope to determine signs of pathological changes.

[12] = test system: Caco-2 monolayers
Method: (§4) Upper filter supports containing viable Caco-2 monolayers were transferred into a 24-well BD Falcon plate and 1 ml of media was dispensed into each basolateral compartment. Solutions containing the CPE (“enhancer solutions”) were applied to the apical compartment and TEER readings were taken at 10 minutes. TEER recovery was assessed by removing enhancer solutions after 30 minutes, applying fresh media, and measuring TEER values at 24 hours.

[13] = test system: Caco-2 cell line (HTB-37)
Method: 10 μL of MTT solution (5 mg/mL) was added to each well for 4 h (37° C.), after which 100 μL of 100% DMSO was applied and the plates were incubated for 1 hr with moderate shaking Absorbance was measured at 570 nm using a Tecan Saffire™ fluorescent microplate reader (Tecan Group Ltd, Mannedorf, Switzerland).

[14] = test system: Caco-2 monolayer; conditions: 0.1% enhancer (total), 10 min
Method: The Examples described herein used 1% Triton X-100 as the positive control.
All TEER values were normalized by their initial values.
where TEERCPE and TEER+ are the resistance values (% of initial) of the enhancer solution and positive control solution, respectively, after 10 minutes of exposure. EP lies on a scale of 0 to 1, with 1 representing maximum enhancement as compared to the positive control.
Caco-2 cell line HTB-37 (ATCC, Rockville, Md.), derived from human colon cells, was used for all experiments. Cells were maintained in DMEM supplemented with 25 IU/ml of penicillin, 25 mg/L of streptomycin, 250 ug/L of amphotericin B and 100 ml/L of fetal bovine serum. Monolayers were grown on BD Biocoat™ collagen filter supports (Discovery Labware, Bedford, Mass.) according to supplier instructions. […]
as §4

[15] = test system: Caco-2 cells; conditions: 0.1% enhancer
Method: Enhancer solutions (100 μl) were applied for 30 minutes. 25 μl of the solution was then transferred to a fresh 96-well plate and mixed with 25 μl of LDH reagent from the CytoTox 96® assay (Promega, Madison, Wis.) and allowed to react for 30 minutes in the dark at room temperature. Stop solution (25 μl) was then added to each well, and the absorbance was read at 490 nm. LDH potential (LP) values are reported as the fraction of maximal LDH release, as determined by the positive control lysis solution provided with the assay kit (˜1% Triton-X100).
Equation 5 was used to assess the relative contribution of transcellular and paracellular pathways to permeability of the intestinal epithelium. […] According to Equation 4, the line EP=LP corresponds to enhancers that act predominantly by the transcellular route (paracellular contributions are negligible). Enhancers lying on the vertical EP axis primarily utilize the paracellular pathway, since there is no relationship between EP and LP when transcellular contributions are negligible. The relative contribution of the paracellular pathway is higher for enhancers falling closer to the EP axis than to the EP=LP line.

[16] = in vitro; conditions: human, Caco-2
Method: as §1, §2, §3

For dextran [reference compound], the “average permeability in the absence of CPEs” value ([1]; no CPE, Caco-2 monolayers) was 4.9×10^−7±2.3×10^−7.
In the case of sorbitan monolaurate [S20], the MIC [2] is reported as “low antibacterial potency” and the LC50 [3] is reported as “negligible toxicity”.
With `CCN(CC)c1ccc2c(-c3ccc(S(=O)(=O)O)cc3S(=O)(=O)[O-])c3ccc(=[N+](CC)CC)cc-3oc2c1` [Sulforhodamine-B] the “% Transport” value ([4]; PPS 0.01%, 0.15 mg) was 3.3 ± 0.4%, the “Apparent Permeability (Papp)” value ([4]; PPS 0.01%, 0.15 mg) was 6.0 ± 0.6 10^−6 cm/s and the “% Transport” value ([4]; PPS 0.03%, 0.15 mg) was 5.1 ± 0.9%. The “Apparent Permeability (Papp)” value ([4]; PPS 0.03%, 0.15 mg) was 9.1 ± 1.6 10^−6 cm/s, the “% Transport” value ([4]; no PPS, 0.15 mg) was 1.9 ± 1.3% and the “Apparent Permeability (Papp)” value ([4]; no PPS, 0.15 mg) was 3.5 ± 2.3 10^−6 cm/s.
In the case of benzalkoniium chloride [BZK], the MIC [2] is reported as 0.00048 % w/v and the LC50 [3] is reported as 0.00078 % w/v.
Work on `CCCCCCCCCC[N+](C)(C)C.[Br-]` [DTAB, Decyltrimethyl ammonium bromide] yielded a TP ([5]; 0.1% enhancer (total), 30 min) of 0.56.
For `CCCCCCCCCCCCCCCC[N+](C)(C)CCCS(=O)(=O)[O-]` [PPS, Palmityldimethyl ammonio propane sulfonate], the TP ([5]; 0.01% (w/v) enhancer, 30 min) was 0, the “epithelial cells with calcein transport into the cell” value [6] was “more than 75%” and the “decrease in TEER (% of initial value)” value ([7]; 0.01% w/v PPS) was 50%. For the same molecule, the “decrease in TEER (% of initial value)” value ([7]; 0.03% w/v PPS) was about 70%, the “drop in TEER” value ([7]; higher concentration (0.03% w/v PPS), 15 minutes) was −50% and the “increase in sulforhodamine transport over negative control” value ([4]; 0.01% PPS) was 1.7 fold. The “increase in sulforhodamine transport over negative control” value ([4]; 0.03% PPS) was 2.6 fold, the “enhancement of FITC-insulin transport” value ([4]; 0.03% w/v PPS) was 2.3 fold and the “enhancement of FITC-insulin transport” value ([4]; lower concentrations of PPS (0.01% w/v)) was “did not increase significantly”. For the same molecule, the “TEER values returned (% of initial)” value [8] was 90-100%, the “increase of FITC-insulin transport across the monolayer (fluorescence intensity)” value ([9]; 0.01% PPS) was 1.3 fold and the “increase of FITC-insulin transport across the monolayer (fluorescence intensity)” value ([9]; 0.03% w/v PPS) was 3.1 fold. The “enhancement of systemic sCT availability based on peak plasma concentrations” value [10] was 45-50 fold, the “pathological damage to the intestinal epithelium” value [11] was “no evidences of necrosis or specific inflammation” and the “cell monolayer structure by TEER recovery” value [12] was “did not damage cell monolayer structure”. The cell viability [13] was about 88% and the “toxicity on Caco-2 cells” value ([13]; Caco-2) was “no detectable toxicity”.
With “FITC-insulin: tracer molecule, FITC-insulin (˜6,000 da)” the “Apparent Permeability (Papp)” value ([4]; Caco-2) was 15.6 ± 0.7 10^−6 cm/s.
For `c1ccc(N2CCNCC2)cc1` [PPZ, Phenyl piperazine], the TP ([5]; 0.1% enhancer (total), 30 min) was 0.09, the “increase of 70 kDa dextran permeability” value ([1]; enhancer at 0.1%, 70 kDa dextran) was over 11 fold and the “increase of mannitol permeability” value ([1]; enhancer at 0.1%, mannitol) was “more than 14 fold”. The EP [14] was 0.95, the “TEER recovery, % of original value” ([12]; after removal of 0.1% PPZ, within 24 hours) was 100% and the K [15] was 0.86.
Sodium laureth sulfate [SLA] gave a TP [5] of 0.88.
Molecule `OC[C@@H](O)[C@@H](O)[C@H](O)[C@H](O)CO` [mannitol, reference compound] has a Papp A→B at 1 h, 1 μCi/ml [16] of 0.43 ×10⁻⁶ cm/s.
